Data published in publication PMC9737847, “Complex Formation between Cytochrome c and a Tetra-alanino-calix[4]arene” (International Journal of Molecular Sciences, 2022).

Target: T1, cytochrome c (Saccharomyces cerevisiae, UniProt P00044, C108T)
T1 construct: gene CYC1; 15N-labeled cytochrome c C102T, residues numbered from -5 to 103
Assay: 1H-15N HSQC NMR titration, […] binding model, […] °C, pH […]

T1 sequence (P00044 2-109 C108T): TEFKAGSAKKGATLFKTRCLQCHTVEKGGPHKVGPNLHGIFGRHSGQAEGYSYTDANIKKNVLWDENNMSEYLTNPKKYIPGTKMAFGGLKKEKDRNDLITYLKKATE

## C[C@H](NC(=O)c1cc2c3c(c1)Cc1cc(C(=O)N[C@@H](C)C(=O)O)cc4c1OCCOCCOc1c(cc(C(=O)N[C@@H](C)C(=O)O)cc1Cc1cc(C(=O)N[C@@H](C)C(=O)O)cc(c1OCCOCCO3)C2)C4)C(=O)O [compound 1, Tetra-alanino-calix[4]arene-biscrown-3]
  Kd: ~400 µM
